Assays:
Other Gram - rods = assay: MIC of pure components in Mueller Hinton gelose; type: cell-based; design: unit not given beside the values; conditions: Other Gram - rods n = 15
[1] = system: Staphylococcus And Enterococcus; assay: MIC of pure components in Mueller Hinton gelose; type: cell-based; design: MIC 50 / MIC 90: unit not given beside the values; conditions: Staphylococcus And Enterococcus n = 14; for MIC Range: in µg/mL
Enterobacteriaceae = assay: MIC of pure components in Mueller Hinton gelose; type: cell-based; design: unit not given beside the values; conditions: Enterobacteriaceae n = 13
MRSA = conditions: cited from earlier work

Compound	MIC Range (Other Gram - rods)	MIC 50 (Other Gram - rods)	MIC 90 (Other Gram - rods)	MIC Range [1]	other results
O=C(OCc1ccccc1)c1ccccc1 [Benzyl benzoate, benzyl benzoate]	>10000				
C=C1CC/C=C(\C)CC[C@@H]2[C@@H]1CC2(C)C [Caryophyllene, beta-caryophyllene]	>10000	>10000	>10000		MIC 50 [1]: >10000; MIC 90 [1]: >10000; MIC 50 (Enterobacteriaceae): >10000; MIC 90 (Enterobacteriaceae): >10000; MIC Range (Enterobacteriaceae): >10000
CC12CCC(CC1)C(C)(C)O2 [Cineole, cineole]	>10000				
O=C/C=C/c1ccccc1 [Cinnamaldehyde, trans-cinnamaldehyde]		600	1250	150-300	MIC Range (Enterobacteriaceae; in µg/mL): 150-600; MIC Range (Other Gram - rods; in µg/mL): 150-1250; bibliographic kinetic data on the main compound (MRSA): 1.7 h
CC(=O)OCC=Cc1ccccc1 [Cinnamyl acetate, cinnamyl acetate]		>10000	>10000	5000-10000	
C=CC(C)(O)CCC=C(C)C (stereo not shown) [Linalool, linalool]		>10000	>10000	2500-10000	

From patent US10864188B2, “Anti-microbial composition” (SEPTEOS, priority 2010, dated 2020)
